Laboratory results from PubChem BioAssay (NCI).
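A five-concentration, 48-hour dose response in 96-well plates underlies each endpoint, interpolated linearly between surrounding concentrations. GI50: concentration for 50% inhibition of growth. At the TGI there is no net growth.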

Assays:
Experiment in all cases: DTP human tumour cell line panel, 48 h
OVCAR-5 ovarian = system: OVCAR-5 ovarian
SW-620 colon = system: SW-620 colon
OVCAR-3 ovarian = system: OVCAR-3 ovarian
SF-295 CNS = system: SF-295 CNS
U251 CNS = system: U251 CNS
786-0 renal = system: 786-0 renal
A549 NSCLC = system: A549 NSCLC
RPMI-8226 leukemia = system: RPMI-8226 leukemia
EKVX NSCLC = system: EKVX NSCLC
KM12 colon = system: KM12 colon

SMILES	GI50 (OVCAR-5 ovarian)	TGI (OVCAR-5 ovarian)	GI50 (SW-620 colon)	TGI (SW-620 colon)	GI50 (OVCAR-3 ovarian)	TGI (OVCAR-3 ovarian)	GI50 (SF-295 CNS)	TGI (SF-295 CNS)	GI50 (U251 CNS)	TGI (U251 CNS)	GI50 (786-0 renal)	TGI (786-0 renal)	GI50 (A549 NSCLC)	TGI (A549 NSCLC)	GI50 (RPMI-8226 leukemia)	TGI (RPMI-8226 leukemia)	GI50 (EKVX NSCLC)	TGI (EKVX NSCLC)	GI50 (KM12 colon)	TGI (KM12 colon)
CC(NCCC(c1ccccc1)c1ccccc1)c1ccccc1 (centres undefined)	2.88 µM	11.4 µM	1.71 µM	3.42 µM	3.21 µM	10.7 µM	1.73 µM	3.86 µM	1.59 µM	2.99 µM	1.81 µM	3.67 µM	3.33 µM	12.8 µM	1.92 µM	4.83 µM	3.63 µM	16.5 µM	2.06 µM	4.85 µM
COc1cc(N(CCC#N)CCC#N)ccc1/C(N=Nc1ccc(Cl)cc1)=N/NC(=O)c1cc(Br)ccc1O	> 150 µg/mL	> 150 µg/mL	> 150 µg/mL	> 150 µg/mL	50 µg/mL	> 150 µg/mL	79.4 µg/mL	> 150 µg/mL	145 µg/mL	> 150 µg/mL	77.1 µg/mL	> 150 µg/mL	85.5 µg/mL	> 150 µg/mL	102 µg/mL	> 150 µg/mL	72.4 µg/mL	> 150 µg/mL	48 µg/mL	129 µg/mL
Cc1cc(N[C@@H]2CCC[C@H](Nc3ccnc4cc(Cl)ccc34)C2)nc(N2CCCCCC2)n1	2.06 µM	6.26 µM	1.52 µM	3.28 µM	1.91 µM	4.06 µM	1.32 µM	2.74 µM	1.73 µM	3.41 µM	1.47 µM	2.9 µM	2.19 µM	4.94 µM	1.64 µM	4.71 µM	1.62 µM	3.84 µM	2.06 µM	4.48 µM
CC(=O)ON1CCCC(P(=O)(OCCSC(=O)C(C)(C)C)OCCSC(=O)C(C)(C)C)C1=O (centres undefined)	6.46 µM	> 100 µM	1.59 µM	> 100 µM	1.19 µM	20.5 µM	12.7 µM	> 100 µM	1.02 µM	64.3 µM	1.41 µM	90.4 µM	1.52 µM	> 100 µM	1.45 µM	11.3 µM	2.1 µM	49.6 µM	1.21 µM	13.8 µM
COC(=O)[C@]12CC[C@@H](C)[C@H](C)[C@@H]1C1=CC[C@@H]3[C@@]4(C)C[C@@H](O)[C@H](O)[C@@](C)(CO)C4=CC[C@@]3(C)[C@]1(C)CC2	18.3 µM	35.3 µM	16.9 µM	34.1 µM	18.3 µM	37.8 µM	16.7 µM	33.1 µM	16.5 µM	34.1 µM	18.5 µM	34.5 µM	17.3 µM	35.4 µM	13.9 µM	34.6 µM	15.9 µM	32.5 µM	14.8 µM	32.5 µM
CN(C)C1CCN(C(=O)c2ccc(NC(=O)Nc3ccc(-c4nc(N5CCOCC5)c5cccn5n4)cc3)cc2)CC1	0.0521 µM	16.1 µM	0.128 µM	11.8 µM	0.0412 µM	1.12 µM	0.0719 µM	0.512 µM	0.0599 µM	14.4 µM	0.31 µM	6.36 µM	0.0649 µM	12.6 µM	0.275 µM	1.88 µM	0.0702 µM	3.46 µM	0.155 µM	7.69 µM
Cc1nc(Nc2ccc(Cl)cc2)sc1C(=O)NNC(=S)NN		31.4 µM		38.1 µM		39.5 µM		34.1 µM		32.3 µM		30.2 µM		39.6 µM		79.5 µM		46.8 µM		42.3 µM
NS(=O)(=O)c1ccc(N=Nc2c(O)c(C(=O)O)cc3ccccc23)cc1		> 100 µM		> 100 µM		> 100 µM		> 100 µM		> 100 µM		> 100 µM		> 100 µM		> 100 µM		> 100 µM		> 100 µM
O=c1c(F)cn(Cc2ccc(C34CC5CC(CC(C5)C3)C4)c(O)c2)c(=O)n1Cc1ccc(C23CC4CC(CC(C4)C2)C3)c(O)c1	13.5 µM	28.1 µM	10.7 µM	26.4 µM	15.3 µM	29.2 µM	16.9 µM	32.5 µM	6.89 µM	19.5 µM	11.8 µM	28.3 µM	4.2 µM	> 100 µM	15.4 µM	60.4 µM	15.8 µM	34.8 µM	15.5 µM	32.8 µM
CCC[CH2][Sn]([CH2]CCC)([O]C(=O)c1ccc(OC)c(OC)c1OC)[O][Sn]([CH2]CCC)([CH2]CCC)[O]C(=O)c1ccc(OC)c(OC)c1OC	1.52 µM	2.85 µM	0.0889 µM	0.271 µM	0.406 µM	1.18 µM	0.568 µM	1.5 µM	0.274 µM	1.1 µM	0.176 µM	0.456 µM	2.27 µM	5.42 µM	0.104 µM	0.846 µM	1.39 µM	2.76 µM	0.859 µM	2.31 µM
COc1ccc(-c2nnc3n(C)c(=O)c4ccccc4n23)cc1N	9.26 µM	> 100 µM	0.0523 µM	> 100 µM	0.0474 µM	> 100 µM	0.0499 µM	> 100 µM	1.63 µM	> 100 µM	3.72 µM	> 100 µM	1.47 µM	> 100 µM	3.88 µM	> 100 µM	5.87 µM	> 100 µM	0.0499 µM	> 100 µM
Clc1cc2c(c(CSc3nc4ccccc4n4cccc34)c1)OCOC2	> 100 µM	> 100 µM	> 100 µM	> 100 µM	7.5 µM	> 100 µM	11.7 µM	39.9 µM	17.1 µM	> 100 µM	51.6 µM	> 100 µM	> 100 µM	> 100 µM	> 100 µM	> 100 µM	29.6 µM	> 100 µM	> 100 µM	> 100 µM
c1ccc2c(OCCSCCCCCCCCCCSCCOc3cccc4ccccc34)cccc2c1		> 100 µM		> 100 µM		> 100 µM		> 100 µM		> 100 µM		> 100 µM		> 100 µM		> 100 µM		> 100 µM		> 100 µM
CCN(CC)CCNc1nc(N)c(C#N)c(C#N)c1C#N		> 10 µM		> 10 µM		> 10 µM		> 10 µM		> 10 µM		> 10 µM		> 10 µM		> 10 µM		> 10 µM		> 10 µM
CN1CCC(=O)/C(=C/c2ccccc2)C1		29.3 µM		14.1 µM		26.2 µM		29.3 µM		19.1 µM		25.2 µM		34.3 µM		15.7 µM		40.5 µM		5.28 µM
O=c1oc2ccc(-c3ccc(F)cc3F)cc2c(=O)n1-c1cccc(C(F)(F)F)c1	4.11 µM	> 100 µM	2.64 µM	12.8 µM	0.784 µM	12.8 µM	1.78 µM	4.14 µM	1.73 µM	12.7 µM	2.47 µM	6.5 µM	1.75 µM	34.8 µM	0.395 µM	3.26 µM	2.16 µM	> 100 µM	2.09 µM	5.63 µM
CN(C)C(=S)/N=c1\sn(C)/c(=N\C(=S)N(C)C)n1C		> 100 µM		> 100 µM		> 100 µM		> 100 µM		> 100 µM		> 100 µM		> 100 µM		> 100 µM		> 100 µM		> 100 µM
CC(C)(/C=C(\C#N)C(=O)N1CCC[C@@H](n2nc(-c3ccc(Oc4ccccc4)cc3F)c3c(N)ncnc32)C1)N1CCN(C2COC2)CC1	11.3 µM	24.1 µM	12.4 µM	31.3 µM	10.5 µM	23.2 µM	6.39 µM	19.6 µM	7.35 µM	25.8 µM	4.12 µM	18.9 µM	6.57 µM	25.1 µM	4.41 µM	33.1 µM	6.03 µM	19.2 µM	3.34 µM	14 µM
COc1cc(N=Nc2ccc(O)c3ncccc23)c2ncccc2c1	7.3 µM	> 100 µM	3.86 µM	> 100 µM	4.58 µM	> 100 µM	18.5 µM	> 100 µM	3.43 µM	> 100 µM	3.43 µM	24.2 µM	8.04 µM	> 100 µM	2.97 µM	> 100 µM	4.08 µM	> 100 µM	4.21 µM	> 100 µM
CN(C)CC[C@H](CSc1ccccc1)Nc1ccc(S(=O)(=O)NC(=O)c2ccc(N3CCN(Cc4ccccc4-c4ccc(Cl)cc4)CC3)cc2)cc1[N+](=O)[O-]	5.07 µM	41.1 µM	4.02 µM	> 61.1 µM	3.92 µM	23.6 µM	3.6 µM	> 100 µM	3.9 µM	17.4 µM	3.6 µM	15.1 µM	3.73 µM	> 100 µM	2.56 µM	> 100 µM	3.32 µM	> 100 µM	3.6 µM	23.6 µM
O=C(Nc1ccc(Br)cc1F)c1cc(Cl)ccc1O	3.67 µM	> 100 µM	1.05 µM	> 39.2 µM	0.476 µM	> 26.6 µM	1.77 µM	3.65 µM	0.709 µM	> 100 µM	2.54 µM	7.62 µM	2.78 µM	> 100 µM	0.342 µM	1.88 µM	1.12 µM	> 26.2 µM	2.14 µM	5.43 µM
CC(C)(C)c1cc(C(P(=O)(O)O)P(=O)(O)O)cc(C(C)(C)C)c1O		> 100 µM		> 100 µM		> 100 µM		> 100 µM		> 100 µM		> 100 µM		> 100 µM		> 100 µM		> 100 µM		> 100 µM
O=C(/C=C/c1ccc[nH]1)c1ccc(-n2ccc(C(F)(F)F)n2)cc1	> 100 µM	> 100 µM	> 100 µM	> 100 µM	0.764 µM	22.6 µM	> 25.8 µM	> 100 µM	5.55 µM	> 100 µM	6.17 µM	> 100 µM	9.64 µM	> 100 µM	0.436 µM	8.15 µM	> 100 µM	> 100 µM	0.463 µM	8.95 µM
CC(C)C1=Cc2ccc3c(c2C(=O)C1=O)CCCC3(C)C		33.8 µM		10.2 µM		6.71 µM		31 µM		27.2 µM		10.5 µM		34.8 µM		5.17 µM		28.6 µM		33.1 µM
CCOC(=O)c1nc2c(OC)nn(O)cc-2c1[N+](=O)[O-]		33.7 µM		29.1 µM		35.2 µM		> 100 µM		30.8 µM		30.7 µM		> 100 µM		56.2 µM		36.4 µM		28.2 µM
CCOC(=O)Nc1cc2c(c(N)n1)N=C(c1ccccc1)CO2	1.15 µM	48.5 µM	0.0496 µM	98.2 µM	0.0345 µM	0.109 µM	0.224 µM	14.2 µM	0.183 µM	14.3 µM	1.21 µM	20.9 µM	0.167 µM	13.8 µM	0.126 µM		0.409 µM	> 46 µM	0.0366 µM	2.11 µM
NC(N)=N/N=C/c1c(Cl)cccc1Cl	22.4 µM	79.8 µM	15.8 µM	30.6 µM	28.1 µM	> 100 µM	12.4 µM	30.2 µM	16.3 µM	33.7 µM	18 µM	43.7 µM	27.4 µM	> 100 µM	40.7 µM	> 100 µM	15.9 µM	47.5 µM	19.9 µM	59.1 µM
